“Also recorded” adds a separate entry of the source.
What was measured:
IMR-32 cells = test: Mitochondrial potential assay (Mitotracker Orange); assay type: cell-based, human; conditions: 75 ppb and 150 ppb
Description: The mitochondrial potential per cell in control lentiviral KD IMR-32 or IMR-32 FOXO4 knockdown (KD) cells was determined using the Bio-TeK Synergy HT Multi-Mode fluorescence microplate reader with the following modifications. To improve the attachment of IMR-32 cells to culture dishes, cell culture plates were precoated with 0.1% gelatin (Sigma, St. Louis, Mo.).
To reduce cell dislodgment, Mitotracker Orange and Hoechst 33342 fluorescent dyes (diluted in culture media) were directly added to each well after control or compound treatments were added. After dye incubation, cell culture media was carefully replaced with 1×PBS buffer for the quantitation analysis of fluorescence on the microplate reader. Eight samples per each treatment were examined for the above analysis, and the experiments were repeated at least five times. Data are presented as mean±sem of eight samples.
Mitochondrial (MT) dysfunction and dysregulated glucose metabolism are associated with the onset of Alzheimer's Disease (AD). Likewise, as AD progresses, there is strong evidence that Aβ and Tau protein species precipitate further mitochondrial decline. […]

RCAN1 = test: QRT-PCR of RCAN1 and RCAN1.1 mRNA in control and FOXO4 KD IMR-32 cells; assay type: cell-based, human; conditions: 24 hours
Description: IMR-32 cells were cultured on 12-well plates for 24 hours and then incubated with FOXO4 siRNA lentiviruses (SC-29650V, Santa Cruz) or control siRNA lentiviruses (sc-108080, Santa Cruz) in the presence of Polybrene (5 μg/ml, Santa Cruz) for 24 hours according to the manufacturer's protocol. These lentiviral siRNA-transfected cells were amplified in normal media for 3 days and then incubated with puromycin for 9-14 days to obtain the stable Control KD (stably transfected with the control siRNAs) and FOXO4KD (stably transfected with Foxo4 siRNAs) cells. These control and Foxo4 KD cells were subjected to cell survival, mitochondrial potential and RNA analysis.
(§1) Human IMR-32 cells were seeded on gelatinized 6-well (6.5×10^5 cells/well) or 24-well (1.3×10^5 cells/well) plates. Cells were treated with control (0 ppb) or various compounds for 6 hours or 24 hours. Total RNA from these cells was isolated using Trizol (Invitrogen) according to the manufacturer's protocol, and then incubated with DNase I to remove any potential contaminated genomic DNA. Then RNA samples were subjected to real-time PCR analysis using the Applied-Bioscience's RT kit and predesigned Taqman probes (Invitrogen), as described previously (Lan et al EMBO J 2003). The mRNA levels of UCP1, UCP2, UCP3, SLC25A27 (UCP4), SLC25A14 (UCP5), PSEN1, Nicastrin, GSK3B, MAPK11-14, PPARG, APOE, RCAN1, RCAN1.1, G6PC, INSR, IGF1R and FOXO4 were measured. Three to six samples were analyzed in each treatment group. Data were normalized by Actin B (ACTB) or Glyceraldehyde Phosphate Dehydrogenase (GAPDH) mRNA levels in each sample and are presented as mean±SEM of 3-6 samples.
To investigate whether Compound C can regulate transcription of RCAN1 in a dose-dependent and FOXO4-dependent manner, normal control cells and FOXO4 KD cells were treated with two doses of Compound C for 24 hours, and subjected to QRT-PCR analysis. First a specific RCAN1 Taqman probe that can recognize all RCAN1 mRNA isoforms was used to determine if Compound C can regulate the transcription of RCAN1.
To further determine whether Compound C can regulate the transcription of RCAN1.1 mRNA, the above Compound C-treated RNA samples were subjected to QRT-PCR using a specific RCAN1.1 mRNA Taqman probe.

INSR = test: QRT-PCR of INSR mRNA in IMR-32 cells; assay type: cell-based, human; conditions: 75 ppb and 150 ppb, 24 hours
Description: as §1
(§2) To examine whether or not Compound C can regulate INSR/IGF1R signaling in IMR-32 cells, QRT-PCR analysis was performed to measure INSR and IGF1R mRNA levels. […] Mean±SEM, n=4. The * refers to a p value <0.05 when compared to the control group (0 ppb).

IGF1R = test: QRT-PCR of IGF1R mRNA in IMR-32 cells; assay type: cell-based, human; conditions: 75 ppb and 150 ppb, 24 hours
Description: as §1, §2

[1] = system: phosphorylated Foxo3 (threonine 32); test: Western blot of phosphorylated Foxo3 in APP/PS1 mouse brains; assay type: in vivo; conditions: APP/PS1 mouse brain, Compound C diet vs control diet
Description: Male APPΔNLh/ΔNLh×PS1P246 L/246 L knock-in model mice of Alzheimer's disease (abbreviated APP/PS1) were genotyped using standard primers for human APP (Amyloid Precursor Protein) and human PS1 (PSEN1).
At 12 months of age, the mice were euthanized and the brains quickly removed, the cerebellum isolated and the hemispheres snap-frozen in liquid nitrogen and then stored at −80° C. for further immunohistochemistry (IHC), protein and RNA analysis. All procedures conducted on these animal studies were pre-approved by the University of Kentucky IACUC committee.
Frozen hemispheres of control- and Compound C-treated APP/PS1 mice were weighed and homogenized in PBS buffer, and then subsequently extracted with RIPA buffer (Sigma) containing complete proteinase and phosphatase inhibitors (Fisher Scientific). Protein levels in the samples were determined by micro-BCA protein analysis according to the manufacturer's protocol. […] Positive signals on the membrane blots were detected using Amersham's enhanced chemiluminescence Western Blotting Prime Detection reagents (GE healthcare Lifescience, Pittsburgh, Pa.). Images of these luminescence signals on the membrane blots were captured using the LI-COR Odyssey Fc Image system (Lincoln, Nebr.). […]

[2] = FOXO4KD cells, 75 ppb and 150 ppb

With `C[Se]C[C@H]1O[C@@H](n2cnc3c(N)ncnc32)C(O)C1O` (stereo in doubt) [Compound C, 5′-deoxy-5′-methylselenoadenosine] the “MT potential (red fluorescence intensities, micrographs)” value (IMR-32 cells; 6 hours) was “remarkably enhanced”, the “MT potential, quantitative analysis normalized by stained cell nuclei” value (IMR-32 cells; 6 hours and 24 hours) was “significant increase; also recorded: enhanced” and the “RCAN1.1 mRNA expression” value (RCAN1; [2]) was “not significantly affected”. For the same compound, the “total RCAN1 mRNA levels” value (RCAN1; [2]) was “not significantly altered”, the “total RCAN1 mRNA levels” value (RCAN1; control cells (control siRNA lentiviruses), 75 ppb and 150 ppb) was “dose-dependent decrease; also recorded: significantly attenuated” and the “RCAN1.1 mRNA expression” value (RCAN1; control cells, 150 ppb) was “inhibited”. The “INSR mRNA expression levels” value (INSR) was “downregulated”, the “IGF1R mRNA expression levels” value (IGF1R) was “downregulated” and the “phosphorylated Foxo3 at threonine 32 (pFoxo3) protein” value [1] was “inhibition; also recorded: less abundant; also recorded: significant decrease”.
